In PMC7413516, “Antidepressant-like activity and safety profile evaluation of 1H-imidazo[2,1-f]purine-2,4(3H,8H)-dione derivatives as 5-HT1A receptor partial agonists” (PLoS ONE, 2020):
Where “and” joins values, the source holds several entries; their conditions need not be identical. Identical values can stand only once.

Tests used:
[1] = Body weight measurement in the 17-day experiment; format: in vivo, Swiss albino mice; details: for body weight Mean / body weight: mouse, 1.25 mg/kg
Procedure: (§1) The Swiss albino mice were used in the experiment. AZ-853 and AZ-861 were injected once daily for 16 consecutive days. On the 1st and 15th day the administration of the compounds, 18-h spontaneous animal activity was registered (see below). FST, as described earlier, was performed on the 14th day just before the next treatment. To ensure that the effects observed in FST are not the result of increased motility of animals, on the 13th day, just before the next administration, the locomotor activity was measured as described earlier, from 2 to 6 min after test start, i.e. in the period identical to the duration of FST. Blood and organ collection was performed on the 17th day at 24 h after the last dose and fasting.
The body weight was measured daily immediately prior to administration of the drugs. On the 17th day, the blood was collected from the Swiss albino mice sacrificed by decapitation 20 min after i.p. administration of heparin (2500 units/mouse) and then centrifuged at 600 × g (15 min, 4°C) to separate plasma. The liver, heart, and kidney were also collected and weighed.

[2] = test system: mice; experiment: Locomotor activity (Opto M3 activity monitor) in mice; format: in vivo, Swiss albino mice; details: for Number of movements (individual animals): raw data
Source text: The investigated compounds AZ-853 (8-(4-(4-(2-fluorophenyl)piperazin-1-yl)butyl)-1,3-dimethyl-1H-imidazo[2,1-f]purine-2,4(3H,8H)-dione and AZ-861 (1,3-dimethyl-8-(4-(4-(3-(trifluoromethyl)phenyl)piperazin-1-yl)butyl)-1H-imidazo[2,1-f]purine-2,4(3H,8H)-dione) were synthesised in the Department of Medicinal Chemistry, Faculty of Pharmacy, Jagiellonian University, and their synthesis was described earlier. AZ-853 and AZ-861 were suspended in 1% aqueous solution of Tween 80, and WAY-100635 (Sigma, Germany) was dissolved in 0.9% saline. In acute experiments, the selected compounds AZ-853 (0.156–2.5 mg/kg) and AZ-861 (0.625–2.5 mg/kg) were injected i.p. once 60 min before tests, whereas WAY-100635 (0.3 mg/kg) was administered subcutaneously (s.c.) 45 min before the test. […] In chronic experiments, AZ-853 and AZ-861 were administered i.p. once a day (between 9:00 AM and 10:00 AM) for 16 consecutive days at the minimum active doses selected from FST experiment, i.e. 0.625 and 1.25 mg/kg, respectively. […]. The control groups received 1% aqueous solution of Tween 80.
Locomotor activity was recorded with an Opto M3 multi-channel activity monitor (MultiDevice Software v.1.3, Columbus Instruments). The Swiss albino mice were individually placed in plastic cages (220 × 120 × 130 mm) for 30 min habituation period, and then the crossings of each channel (ambulation) were counted from […] to 6 min, that is the time equal to the observation period in FST. The cages were cleaned up with 70% ethanol after each mouse.
as §1, with “[…].” for “On the 1st and 15th day the administration of the compounds, 18-h spontaneous animal activity was registered (see below).”

[3] = target: T1, human serotonin 5-HT1A receptor (Homo sapiens, UniProt P08908); experiment: ERK1/2 phosphorylation (SureFire Alpha LISA, CHO-K1 5HT1AR cells)
T1 sequence (P08908 1-422): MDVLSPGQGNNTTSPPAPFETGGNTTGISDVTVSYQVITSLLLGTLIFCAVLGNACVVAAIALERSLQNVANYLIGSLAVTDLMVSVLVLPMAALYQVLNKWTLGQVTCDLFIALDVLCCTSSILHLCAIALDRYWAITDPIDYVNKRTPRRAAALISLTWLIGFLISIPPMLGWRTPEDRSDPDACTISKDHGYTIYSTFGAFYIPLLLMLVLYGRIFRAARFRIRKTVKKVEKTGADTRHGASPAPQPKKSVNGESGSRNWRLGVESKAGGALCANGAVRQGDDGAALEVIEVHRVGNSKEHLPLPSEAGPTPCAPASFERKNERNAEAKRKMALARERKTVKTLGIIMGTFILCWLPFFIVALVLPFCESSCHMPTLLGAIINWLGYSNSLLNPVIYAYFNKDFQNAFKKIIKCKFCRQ
Procedure: CHO-K1 cell line transfected with 5-HT1A receptor, were commercially obtained from Perkin Elmer (Cat. No. ES-310-C, Lot Number M2W-C1). Cells were cultured according to manufacturer’s instruction. […] Geneticin-resistant clones were obtained by limit dilution and compared for receptor expression levels using a radioligand binding assay. The clone with the highest receptor expression level was selected for characterization in binding and functional assays. […] Corresponding Protein Sequence: Identical to GenBank NP_000515.2. Receptor expression level (BMAX): Estimated to be 3.7 ± 2.3 pmol/mg protein, using [3H] […] This cell line tested negative for mycoplasma.

[4] = target: T2, human 5-HT1AR (Homo sapiens, UniProt P08908); experiment: β-Arrestin recruitment (Tango LiveBLAzer, HTR1A-bla U2OS cells)
T2 sequence (P08908 1-422): T1 sequence (P08908 1-422)
Procedure: Cells were cultured according to manufacturer’s instruction. […] This parental cell line stably expresses a beta-arrestin/TEV protease fusion protein and the beta-lactamase reporter gene under the control of a UAS response element. The Tango™ HTR1A-bla U2OS cells have been functionally validated for a response to 5-CT. This cell line tested negative for mycoplasma.
The HTR1A-bla U2OS receptor cells containing the human 5-HT1AR linked to a TEV protease site and a Gal4-VP16 transcription factor were tested for recruitment of β-arrestin. […] The recruitment of β-arrestin were tested using the Tango LiveBLAzer assay kit according to the manufacturer’s instruction (Life Technologies). The assay plate was measured in FLUOstar Optima, a multifunction plate reader (BMG Lab Tech).

## Cn1c(=O)c2c(nc3n(CCCCN4CCN(c5cccc(C(F)(F)F)c5)CC4)ccn23)n(C)c1=O [AZ-861, 1,3-dimethyl-8-(4-(4-(3-(trifluoromethyl)phenyl)piperazin-1-yl)butyl)-1H-imidazo[2,1-f]purine-2,4(3H,8H)-dione]
[1]; mice, repeated i.p. once daily, AZ-853 0.625 mg/kg (from 10th day), AZ-861 1.25 mg/kg (2nd, 3rd, 4th day)
  effect on body weight: slight and significant decrease in body weight
[1]; day 1, group mean
  body weight Mean: 23.19 g
[1]; day 1, individual mouse
  body weight: 20.6 g and 21.8 g and 22.1 g and 24.2 g and 24.0 g and 23.4 g and 23.1 g and 24.9 g and 26.3 g and 21.5 g
[1]; day 2, group mean
  body weight Mean: 23.05 g
[1]; day 2, individual mouse
  body weight: 20.7 g and 22.8 g and 22.6 g and 24.2 g and 23.5 g (2×) and 23.1 g and 23.6 g and 24.9 g and 21.6 g
[1]; day 3, group mean
  body weight Mean: 23.20 g
[1]; day 3, individual mouse
  body weight: 21.0 g (2×) and 22.0 g and 23.0 g and 24.0 g (5×) and 25.0 g
[1]; day 4, group mean
  body weight Mean: 23.30 g
[1]; day 4, individual mouse
  body weight: 22.0 g (2×) and 23.0 g (3×) and 21.0 g and 24.0 g (2×) and 25.0 g and 26.0 g
[1]; day 5, group mean
  body weight Mean: 23.70 g
[1]; day 5, individual mouse
  body weight: 21.6 g and 22.5 g and 22.7 g and 24.5 g and 24.0 g and 23.5 g and 24.9 g and 26.3 g and 25.9 g and 21.1 g
[1]; day 6, group mean
  body weight Mean: 23.76 g
[1]; day 6, individual mouse
  body weight: 21.6 g (2×) and 22.1 g and 22.6 g and 25.1 g and 24.3 g and 23.0 g and 25.3 g and 25.6 g and 26.4 g
[1]; day 7, group mean
  body weight Mean: 23.90 g
[1]; day 7, individual mouse
  body weight: 22.0 g (3×) and 23.0 g and 25.0 g (2×) and 24.0 g (2×) and 26.0 g (2×)
[1]; day 8, group mean
  body weight Mean: 24.10 g
[1]; day 8, individual mouse
  body weight: 23.0 g (3×) and 25.0 g (2×) and 24.0 g (2×) and 26.0 g (2×) and 22.0 g
[1]; day 9, group mean
  body weight Mean: 24.40 g
[1]; day 9, individual mouse
  body weight: 23.0 g (4×) and 26.0 g (3×) and 25.0 g (2×) and 24.0 g
[1]; day 10, group mean
  body weight Mean: 24.31 g
[1]; day 10, individual mouse
  body weight: 22.5 g and 23.1 g (2×) and 25.2 g and 24.7 g and 24.0 g and 25.0 g and 26.6 g and 26.8 g and 22.1 g
[1]; day 11, group mean
  body weight Mean: 24.47 g
[1]; day 12, group mean
  body weight Mean: 24.59 g
[1]; day 13, group mean
  body weight Mean: 24.59 g
[1]; day 14, group mean
  body weight Mean: 24.73 g
[1]; day 15, group mean
  body weight Mean: 25.31 g
[2]; 4 min period identical to FST, AZ-853 0.625, 1.25, 2.5 mg/kg, AZ-861 1.25 mg/kg, WAY-100635 0.3 mg/kg alone or combined
  effect on spontaneous locomotor activity, acute administration: did not change the behavior of the animals
[2]; acute, 1.25 mg/kg i.p., measured from 3 to 6 min
  Number of movements (mean): 167.3
[2]; acute, 1.25 mg/kg, 3 to 6 min
  Number of movements (individual animals): 185 and 251 and 120 and 156 and 217 and 91 and 151
[2]; repeated, 1.25 mg/kg, 24 h after 12th administration, during 4 min
  Number of movements (mean): 513.9
[2]; repeated, 1.25 mg/kg
  Number of movements (individual animals): 418 and 521 and 595 and 467 and 633 and 454 and 778 and 245
[3]
  EC50: 1.15 nM
[3]; CHO-K1, read-out: Emax (%) ± SEM, agonist mode
  Emax: 76 ± 1.3%
[3]; p-ERK1/2
  decreased efficacy as compared to 5-HT: 1.3 fold
  increased potency as compared to 5-HT: 9.1 fold
[4]
  EC50: 0.372 nM
[4]; U2OS, read-out: Emax (%) ± SEM, agonist mode
  Emax: 95 ± 1.7%
[4]; β-arrestin recruitment
  increased potency as compared to 5-HT: 1000 fold
